Series [1] deals with cardiovascular system (mean blood pressure, coronary blood flow). Put plainly: Effects on the cardiovascular system in anesthetized dogs (i.v.). The series is classed as in vivo, Mongrel dogs. The protocol:
(§1) The compounds, when given intravenously, reduced the blood pressure and increased the coronary blood flow in the dose range of 1 to 1,000 μg/kg and, when administered into the coronary artery, they dilated the coronary artery in the dose range of 0.3 to 100 μg.
(2) Effects on the cardiovascular system
Mongrel dogs of either sex were anesthetized with pentobarbital, 30 mg/kg i.v. and, after tracheal intubation, the experiment was performed under artificial respiration. After thoracotomy, heart rate, blood pressure, left ventricular pressure, max dLVP/dt, pulmonary arterial pressure, central venous pressure, cardiac output and coronary blood flow were measured. The test compound was administered through a cannula indwelt in the femoral vein and the efficacy was evaluated.
(3) Coronary vasodilating effect

Series [2] relates to 3,4-diaminopyridine-induced rhythmic contractions of left coronary artery ring segments. Kind of series: Inhibition of 3,4-diaminopyridine-induced rhythmic contractions (frequency) in isolated coronary artery rings. On the set-up: species or system Mongrel dogs. Particulars: Canis lupus familiaris; isolated dog coronary artery rings; 3,4-diaminopyridine 10 mM; 37° C.; read-out: IC50, inhibitory effect on the frequency of 3,4-diaminopyridine-induced rhythmic contractions. As to the method: as §1
(1) Effects on 3,4-diaminopyridine-induced rhythmic contractions
The method of Uchida and Sugimoto (Myakkangaku, 24, 133-143, 1984) was used. Mongrel dogs of either sex were anesthetized with pentobarbital (30 mg/kg i.v.) and bled to death and, then, the heart was excised from each animal. In the Krebs-Henseleit solution, the left coronary circumflex branch or the anterior descending branch was isolated and cut into rings, about 2 mm in width. The ring segment was fixed to a stainless steel hook and suspended in a Krebs-Henseleit bath (37° C.) aerated with 95%O2 -5%CO2 gas mixture under a tension load of 1.0 g, and isometric contractions were recorded.
After the specimen was stabilized for 30 minutes, rhythmic contractions were induced by addition of 3,4-diaminopyridine (10 mM). When the amplitude and frequency of rhythmic contractions became substantially steady, cumulative addition of the test compound to the organ bath was started. The concentration-response curves for the amplitude and frequency of contractions were constructed and the efficacy was evaluated.
The inhibitory effect on the frequency of contractions is shown in Column (1) in Table 1.

A short description of series [3]: Acute toxic effect (LD50), intravenous. Particulars: mouse, in vivo, i.v. (caudal vein), male mice, up and down method, read-out: LD50, acute toxic dose. As to the method: (§2) Then, in connection with Examples 1 and 2, the hypotensive effect of the test compound given orally in conscious spontaneously hypertensive rats (SHR) and the intravenous acute toxicity in mice were determined.
The acute toxic dose (LD50) of the test compound administered into the caudal vein was determined by the up and down method in male mice.

The test system of series [4] is spontaneously hypertensive rats (SHR). Put plainly: Hypotensive effect, oral, in conscious spontaneously hypertensive rats (SHR). The series is classed as in vivo, Spontaneously hypertensive rats (SHR) of Okamoto-Aoki strain. As to the method:
as §2
Spontaneously hypertensive rats (SHR) of Okamoto-Aoki strain were anesthetized with pentobarbital, 60 mg/kg i.p. Then, a cannula for blood pressure measurement was indwelt in the left common carotid artery and the other end of the cannula was led out extracorporeally from the posterior neck. After a stabilization period of 4-5 postoperative days, the blood pressure and heart rate were measured without restraint under no anesthesia. The test compound was suspended in 0.5% methylcellulose solution and the suspension was orally administered in a volume of 5 ml/kg and the efficacy was evaluated.

What is called IC50 is the point on the concentration scale where inhibition reaches its midpoint. A word on the LD50: it is the dose expected to kill half of the subjects tested.

Consider `CC1(C)CN(N2CCCC2=O)c2cc([N+](=O)[O-])ccc2O1` [41(4), 3,4-dihydro-2,2-dimethyl-4-(2-oxo-1-pyrrolidinyl)-6-nitro-2H-1,4-benzoxazine], for which, in series [1] (3 μg/kg i.v.), the “MBP: mean blood pressure-lowering effect (percent reduction)” value is -20 Δ%. Also, in series [2], the IC50 amounted to 50 nM.

`CC1(C)Oc2ccc(C#N)cc2C(N2CCCC2=O)C1O` (centres unmarked) [Cromakalim, reference compound]: the LD50 in series [3] was determined as 49.7 mg/kg. Besides, the “MBP: mean blood pressure-lowering effect (percent reduction)” value in series [1] (10 μg/kg i.v.) was -28 Δ%. For the same molecule, the IC50 in series [2] worked out at 390 nM. Also, the “MBP: mean blood pressure-lowering effect” value in series [4] (300 μg/kg p.o.) was -35 Δ%.

Regarding `CC1(C)CN(c2cccc[n+]2[O-])c2cc([N+](=O)[O-])ccc2O1` [Example 1, 2-(3,4-dihydro-2,2-dimethyl-6-nitro-2H-1,4-benzoxazin-4-yl)pyridine N-oxide], in series [3], the median lethal dose (LD50) was 50.4 mg/kg. Further, the “MBP: mean blood pressure-lowering effect (percent reduction)” value in series [1] (3 μg/kg i.v.) is listed as -16 Δ%. In addition, in series [2], the IC50 was 10 nM. Besides, in series [4] (30 μg/kg p.o.), the “MBP: mean blood pressure-lowering effect” value is listed as -25 Δ%.

In the case of `CC1(C)CN(c2cccc[n+]2[O-])c2cc(C#N)ccc2O1` [Example 2, 2-(6-cyano-3,4-dihydro-2,2-dimethyl-2H-1,4-benzoxazin-4-yl)pyridine N-oxide], in series [3], the LD50 was above 60 mg/kg. Further, in series [1] (10 μg/kg i.v.), the “MBP: mean blood pressure-lowering effect (percent reduction)” value was -20 Δ%. The IC50 in series [2] stood at 240 nM. In addition, the “MBP: mean blood pressure-lowering effect” value in series [4] (300 μg/kg p.o.) is given as -40 Δ%.

For `CC(=O)CN1CC(C)(C)Oc2ccc([N+](=O)[O-])cc21` [Example 38, 4-Acetonyl-3,4-dihydro-2,2-dimethyl-6-nitro-2H-1,4-benzoxazine], the “MBP: mean blood pressure-lowering effect (percent reduction)” value in series [1] (10 μg/kg i.v.) is on record as -23 Δ%. Further, the IC50 in series [2] was determined as 70 nM.

As for `CN(C)C(=O)CN1CC(C)(C)Oc2ccc([N+](=O)[O-])cc21` [Example 56, 2-(3,4-dihydro-2,2-dimethyl-6-nitro-2H-1,4-benzoxazin-4-yl)-N,N-dimethylacetamide], the “MBP: mean blood pressure-lowering effect (percent reduction)” value in series [1] (3 μg/kg i.v.) was -11 Δ%. Also, in series [2], the IC50 was 20 nM.

Turning to `CC1(C)CN(C2=CCCC2=O)c2cc([N+](=O)[O-])ccc2O1` [Example 70, 3,4-Dihydro-2,21-dimethyl-6-nitro-4-(5-oxo-1-cyclopenten-1-yl) -2H-1,4-benzoxazine], the “MBP: mean blood pressure-lowering effect (percent reduction)” value in series [1] (10 μg/kg i.v.) is -9 Δ%. Besides, the IC50 in series [2] came out at 10 nM.

Values taken from patent US5420126A, “3,4-dihydro-2H-1,4-benzoxazine derivatives and pharmaceutical compositions containing the same” (Yamanouchi Pharmaceutical Co., Ltd., priority 1989, dated 1995).
